Measured values taken from ChEMBL document CHEMBL1201862, “PubChem BioAssay data set” (2004).
Values belong to the compound of their own block, whether it stands above or below them. Activity calls are given as the source filed them.

Legend:
[1] = target: Peroxisome proliferator-activated receptor gamma/Nuclear receptor coactivator 2 (Homo sapiens, UniProt P37231); assay: (§1) TR-FRET dose response biochemical High Throughput Screening assay for agonists of the steroid receptor coactivator 2 (SRC-2) recruitment by the peroxisome proliferator-activated receptor gamma (PPAR gamma): non-selective agonists. [Related pubchem assays: 1297, 1032 ]; assay type: functional
Chain of Peroxisome proliferator-activated receptor gamma/Nuclear receptor coactivator 2 (P37231 whole entry): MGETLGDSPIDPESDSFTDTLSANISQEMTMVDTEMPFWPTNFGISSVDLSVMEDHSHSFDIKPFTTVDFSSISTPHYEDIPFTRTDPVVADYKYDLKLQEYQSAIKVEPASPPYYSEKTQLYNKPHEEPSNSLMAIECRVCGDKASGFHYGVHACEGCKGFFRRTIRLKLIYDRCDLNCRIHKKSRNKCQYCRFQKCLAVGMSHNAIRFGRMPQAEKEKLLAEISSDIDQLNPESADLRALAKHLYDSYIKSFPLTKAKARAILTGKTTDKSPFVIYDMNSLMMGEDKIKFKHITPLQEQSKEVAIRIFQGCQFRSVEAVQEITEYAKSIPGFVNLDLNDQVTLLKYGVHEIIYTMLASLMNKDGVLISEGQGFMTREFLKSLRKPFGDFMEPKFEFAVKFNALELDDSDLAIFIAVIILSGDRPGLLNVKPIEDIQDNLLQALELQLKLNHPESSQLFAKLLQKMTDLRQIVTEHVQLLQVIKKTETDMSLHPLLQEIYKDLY
Chain of Peroxisome proliferator-activated receptor gamma/Nuclear receptor coactivator 2 (Q15596 whole entry, further chain): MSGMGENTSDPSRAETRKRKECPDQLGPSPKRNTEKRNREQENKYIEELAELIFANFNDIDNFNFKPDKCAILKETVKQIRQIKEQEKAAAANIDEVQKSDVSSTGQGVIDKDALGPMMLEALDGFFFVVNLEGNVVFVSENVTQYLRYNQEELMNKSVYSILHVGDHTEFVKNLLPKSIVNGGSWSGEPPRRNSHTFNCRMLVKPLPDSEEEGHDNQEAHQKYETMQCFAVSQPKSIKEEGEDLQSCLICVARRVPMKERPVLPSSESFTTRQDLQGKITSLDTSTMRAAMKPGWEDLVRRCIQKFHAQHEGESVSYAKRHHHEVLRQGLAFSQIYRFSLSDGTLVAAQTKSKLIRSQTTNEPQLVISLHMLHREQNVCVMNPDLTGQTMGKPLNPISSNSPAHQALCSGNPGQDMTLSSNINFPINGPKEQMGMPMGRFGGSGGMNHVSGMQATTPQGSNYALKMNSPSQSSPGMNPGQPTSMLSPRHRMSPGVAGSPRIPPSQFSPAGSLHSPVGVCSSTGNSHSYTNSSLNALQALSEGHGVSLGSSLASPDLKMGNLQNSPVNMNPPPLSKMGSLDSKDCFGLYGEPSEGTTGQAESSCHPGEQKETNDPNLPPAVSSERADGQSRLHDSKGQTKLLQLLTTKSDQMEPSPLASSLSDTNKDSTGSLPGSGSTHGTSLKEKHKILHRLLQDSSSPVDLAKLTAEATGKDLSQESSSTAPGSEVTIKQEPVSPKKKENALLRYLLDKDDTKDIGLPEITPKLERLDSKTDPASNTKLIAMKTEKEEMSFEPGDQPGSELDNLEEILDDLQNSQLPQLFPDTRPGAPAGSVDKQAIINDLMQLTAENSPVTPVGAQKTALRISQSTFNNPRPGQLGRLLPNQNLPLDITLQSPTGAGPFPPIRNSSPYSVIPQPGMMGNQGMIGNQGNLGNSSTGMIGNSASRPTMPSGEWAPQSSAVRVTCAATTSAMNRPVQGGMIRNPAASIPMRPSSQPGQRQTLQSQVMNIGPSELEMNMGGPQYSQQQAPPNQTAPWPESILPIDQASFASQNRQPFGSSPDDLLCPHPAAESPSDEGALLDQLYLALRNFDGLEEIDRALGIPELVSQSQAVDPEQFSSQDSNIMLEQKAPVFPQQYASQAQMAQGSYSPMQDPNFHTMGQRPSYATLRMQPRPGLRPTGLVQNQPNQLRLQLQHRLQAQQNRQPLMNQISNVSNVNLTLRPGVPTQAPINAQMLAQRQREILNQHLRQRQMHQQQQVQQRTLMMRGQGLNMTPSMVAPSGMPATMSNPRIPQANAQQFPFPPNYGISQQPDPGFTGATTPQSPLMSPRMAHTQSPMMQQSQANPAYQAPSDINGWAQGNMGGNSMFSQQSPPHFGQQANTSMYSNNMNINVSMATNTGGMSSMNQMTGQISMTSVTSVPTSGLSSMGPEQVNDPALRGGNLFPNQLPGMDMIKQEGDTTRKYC

[2] = target: Peroxisome proliferator-activated receptor gamma/Nuclear receptor coactivator 1 (Homo sapiens, UniProt P37231); assay: as §1, with “1 (SRC-1)” for “2 (SRC-2)”, “assays (depositor defined):AID1300, AID1808, AID504735, AID631]” for “assays: 1297, 1032 ]”; assay type: protein assay
Chain of Peroxisome proliferator-activated receptor gamma/Nuclear receptor coactivator 1 (P37231 whole entry): as the sequence (P37231 whole entry) above
Chain of Peroxisome proliferator-activated receptor gamma/Nuclear receptor coactivator 1 (Q15788 whole entry, further chain): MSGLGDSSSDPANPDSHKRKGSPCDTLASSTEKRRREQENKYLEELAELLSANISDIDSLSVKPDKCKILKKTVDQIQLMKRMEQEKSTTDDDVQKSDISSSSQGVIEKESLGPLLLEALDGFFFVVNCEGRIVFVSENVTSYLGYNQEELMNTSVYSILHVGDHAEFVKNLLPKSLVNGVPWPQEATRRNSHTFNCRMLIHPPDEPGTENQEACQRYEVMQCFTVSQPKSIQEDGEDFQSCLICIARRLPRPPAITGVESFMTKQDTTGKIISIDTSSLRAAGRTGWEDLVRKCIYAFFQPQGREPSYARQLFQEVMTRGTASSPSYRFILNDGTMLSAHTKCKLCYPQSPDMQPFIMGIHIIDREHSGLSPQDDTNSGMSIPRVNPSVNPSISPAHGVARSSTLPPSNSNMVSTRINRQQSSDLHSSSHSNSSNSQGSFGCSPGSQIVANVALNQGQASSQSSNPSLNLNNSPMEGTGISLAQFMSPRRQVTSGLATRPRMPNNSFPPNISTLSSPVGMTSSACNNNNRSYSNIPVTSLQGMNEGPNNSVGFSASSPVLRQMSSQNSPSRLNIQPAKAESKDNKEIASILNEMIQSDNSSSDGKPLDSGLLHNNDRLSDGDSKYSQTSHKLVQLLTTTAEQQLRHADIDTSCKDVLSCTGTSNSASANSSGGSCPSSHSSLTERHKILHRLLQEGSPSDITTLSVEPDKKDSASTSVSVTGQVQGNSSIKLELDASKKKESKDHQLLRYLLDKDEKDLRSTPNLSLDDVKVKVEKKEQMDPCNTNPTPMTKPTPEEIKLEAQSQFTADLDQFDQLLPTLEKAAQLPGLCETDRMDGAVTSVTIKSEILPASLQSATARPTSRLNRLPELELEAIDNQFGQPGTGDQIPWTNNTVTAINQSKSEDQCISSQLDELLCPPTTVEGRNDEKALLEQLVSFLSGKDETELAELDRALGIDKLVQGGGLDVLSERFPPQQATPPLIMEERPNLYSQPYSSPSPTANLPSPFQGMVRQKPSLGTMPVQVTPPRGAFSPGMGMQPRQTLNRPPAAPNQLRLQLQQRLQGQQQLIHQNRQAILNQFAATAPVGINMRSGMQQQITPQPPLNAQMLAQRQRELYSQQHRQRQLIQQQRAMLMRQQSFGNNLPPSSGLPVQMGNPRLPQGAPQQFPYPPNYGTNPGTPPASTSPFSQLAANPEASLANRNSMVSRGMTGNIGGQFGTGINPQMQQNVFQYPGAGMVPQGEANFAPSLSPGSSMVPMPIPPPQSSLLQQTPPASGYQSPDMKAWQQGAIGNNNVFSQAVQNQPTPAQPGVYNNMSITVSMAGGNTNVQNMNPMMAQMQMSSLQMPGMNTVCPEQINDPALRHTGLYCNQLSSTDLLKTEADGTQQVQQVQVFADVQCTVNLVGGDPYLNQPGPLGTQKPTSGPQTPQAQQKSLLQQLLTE

[3] = target: Peroxisome proliferator-activated receptor gamma/Nuclear receptor coactivator 3 (Homo sapiens, UniProt P37231); assay: as §1, with “3 (SRC-3)” for “2 (SRC-2)”, “1301 (Confirmation screen.), 1048 (Primary screen.)]” for “1297, 1032 ]”; assay type: functional
[4] = target: E3 ubiquitin-protein ligase Mdm2 (Homo sapiens, UniProt Q00987); assay: MDM2-luc reporter signal enhancers, multi-concentration potency testing, MDM2 ubiquitin-protein ligase inhibitor program, whole-cell format, luminescence detection, 384-well microplate (AID 1394); assay type: functional;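 further: MDM2 E3 inhibitors raise luminescence so EC50 is for signal enhancement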
Chain of E3 ubiquitin-protein ligase Mdm2 (Q00987 whole entry): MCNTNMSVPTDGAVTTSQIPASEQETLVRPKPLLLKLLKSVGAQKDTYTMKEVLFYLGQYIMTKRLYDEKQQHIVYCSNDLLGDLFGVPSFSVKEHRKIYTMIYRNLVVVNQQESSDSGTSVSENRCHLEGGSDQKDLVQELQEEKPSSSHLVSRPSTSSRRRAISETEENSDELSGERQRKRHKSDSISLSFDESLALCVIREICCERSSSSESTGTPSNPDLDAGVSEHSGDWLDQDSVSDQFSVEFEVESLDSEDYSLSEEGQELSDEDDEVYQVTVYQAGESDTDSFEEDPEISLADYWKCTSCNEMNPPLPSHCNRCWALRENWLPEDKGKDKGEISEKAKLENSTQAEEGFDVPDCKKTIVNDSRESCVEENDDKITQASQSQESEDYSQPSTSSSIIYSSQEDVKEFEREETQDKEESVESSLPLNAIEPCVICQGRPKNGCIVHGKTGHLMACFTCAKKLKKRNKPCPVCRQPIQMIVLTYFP

[5] = target: Mitogen-activated protein kinase 10 (Homo sapiens, UniProt P53779); assay: Dose response biochemical screening assay for inhibitors of c-Jun N-Terminal Kinase 3 (JNK3). [Related pubchem assays: 746 ]
Chain of Mitogen-activated protein kinase 10 (P53779 whole entry): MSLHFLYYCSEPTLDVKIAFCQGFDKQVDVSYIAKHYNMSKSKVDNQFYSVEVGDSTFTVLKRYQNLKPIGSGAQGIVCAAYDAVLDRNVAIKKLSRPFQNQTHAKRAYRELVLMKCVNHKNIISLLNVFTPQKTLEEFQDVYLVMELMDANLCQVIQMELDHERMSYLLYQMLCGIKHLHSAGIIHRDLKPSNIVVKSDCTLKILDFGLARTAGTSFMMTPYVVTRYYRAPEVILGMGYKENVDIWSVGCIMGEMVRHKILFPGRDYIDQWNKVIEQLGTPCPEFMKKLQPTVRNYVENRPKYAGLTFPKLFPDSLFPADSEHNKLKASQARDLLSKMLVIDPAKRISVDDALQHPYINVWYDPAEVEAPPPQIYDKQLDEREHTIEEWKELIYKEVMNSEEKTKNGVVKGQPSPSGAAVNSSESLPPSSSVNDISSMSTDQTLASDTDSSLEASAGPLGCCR

[6] = cells; assay type: functional, cell-based
[7] = reduction of Shn3 3'UTR-driven luciferase in osteoblasts – cell-based, Clone20 osteoblasts, firefly luciferase, cherry-picked, dose response (AID 624132); assay type: functional;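 further: firefly luciferase luminescence from reporter carrying the Shn3 3'UTR in osteoblasts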
[8] = cells; assay type: functional, cell-based; remark: listed apart in the source
[9] = target: Paired box protein Pax-8 (Homo sapiens, UniProt Q06710); assay: PAX8 transcriptional activity inhibition in RMG-I – RMG-I cells, luciferase, cherry-pick, dose response (AID 687027); assay type: functional, cell-based;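 further: luciferase reporter driven by Pax8 target thyroperoxidase promoter measured by SteadyGlo luminescence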
[10] = loss of viability in HepG2 cells – cell-based, CellTiter-Glo, cherry-picked, cytotoxicity control for Shn3 inhibitor project, dose response (AID 624134); assay type: functional
[11] = system: INS1; assay: INS-1E survival protection against cytokine death – cell-based, luminescence, retest, dose response (AID 449756); assay type: functional; details: Rattus norvegicus;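 further: cell death triggered by IL-1 beta plus TNF-alpha plus IFN-gamma mixture; protective hits raise ATP signal compared with cytokine alone wells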
[12] = general cell-killing toxicity readout – plate reader, dry powder samples, cytotoxicity control for PAX8 inhibitor project, dose response (AID 743021); assay type: functional, cell-based
[13] = target: T1, Microphthalmia-associated transcription factor (Homo sapiens, UniProt O75030); assay: reducers of TRPM1 reporter luminescence, concentration series – cell-based, SK-MEL-5, cherry-picked, set 3, MITF inhibitor project, dose response (AID 493073); assay type: functional;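 further: SK-MEL-5 melanoma cells with luciferase driven by the MITF target TRPM1 promoter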
T1 sequence (O75030 whole entry): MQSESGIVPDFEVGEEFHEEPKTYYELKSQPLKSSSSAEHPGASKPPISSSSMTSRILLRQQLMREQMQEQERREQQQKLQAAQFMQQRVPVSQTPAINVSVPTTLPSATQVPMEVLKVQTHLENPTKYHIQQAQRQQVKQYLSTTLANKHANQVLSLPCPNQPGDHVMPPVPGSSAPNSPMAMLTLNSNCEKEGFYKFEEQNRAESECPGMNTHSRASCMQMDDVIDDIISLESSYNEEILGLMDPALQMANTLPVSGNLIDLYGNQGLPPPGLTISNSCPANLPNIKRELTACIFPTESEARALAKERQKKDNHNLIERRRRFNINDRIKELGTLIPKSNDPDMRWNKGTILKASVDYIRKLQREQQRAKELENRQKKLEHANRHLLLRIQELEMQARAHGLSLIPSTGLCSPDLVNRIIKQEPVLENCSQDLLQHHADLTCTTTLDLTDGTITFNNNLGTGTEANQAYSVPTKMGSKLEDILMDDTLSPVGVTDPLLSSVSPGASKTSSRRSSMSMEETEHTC

[14] = non-specific 3'UTR reporter inhibition in Clone20-Shn3RL – cell-based, Renilla luciferase, cherry-picked, counter-screen for Shn3 inhibitor project, dose response (AID 624133); assay type: functional
[15] = blockers of HIV-1 envelope-mediated cell-cell fusion – cherry-pick, dose response (AID 652057); assay type: functional, cell-based
[16] = Luminescence Cell-Based Dose Retest to Confirm Inhibitors of Cancer Stem Cells. [Related pubchem assays (depositor defined):AID2717, AID2721]; assay type: functional; details: Homo sapiens
[17] = blockers of HIV-1 ZM109 envelope-driven cell-cell fusion – HeLa effector, CEM target cells, luciferase, cherry-pick, dose response (AID 652058); assay type: functional, cell-based;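 further: luciferase signal from HIV-1 Env mediated cell-cell fusion of effector and target cells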
[18] = off-target signal loss in HeLa-CEM21 co-culture – HeLa F-luc CTL cells, cherry-picked, counter-screen for HIV-1 Env fusion inhibitor project, dose response (AID 652040); assay type: functional, cell-based;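 further: potency for signal decrease marking cytotoxic or nonspecific inhibition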
[19] = target: T2, Corticotropin-releasing factor receptor 2/Corticotropin-releasing factor-binding protein (Homo sapiens, UniProt P24387+Q13324); assay: activators of CRF receptor 2 with binding protein – uHTS hits, confirmation (AID 602473); assay type: functional; details: read-out: EC50_Mean
T2 sequence (Q13324 whole entry): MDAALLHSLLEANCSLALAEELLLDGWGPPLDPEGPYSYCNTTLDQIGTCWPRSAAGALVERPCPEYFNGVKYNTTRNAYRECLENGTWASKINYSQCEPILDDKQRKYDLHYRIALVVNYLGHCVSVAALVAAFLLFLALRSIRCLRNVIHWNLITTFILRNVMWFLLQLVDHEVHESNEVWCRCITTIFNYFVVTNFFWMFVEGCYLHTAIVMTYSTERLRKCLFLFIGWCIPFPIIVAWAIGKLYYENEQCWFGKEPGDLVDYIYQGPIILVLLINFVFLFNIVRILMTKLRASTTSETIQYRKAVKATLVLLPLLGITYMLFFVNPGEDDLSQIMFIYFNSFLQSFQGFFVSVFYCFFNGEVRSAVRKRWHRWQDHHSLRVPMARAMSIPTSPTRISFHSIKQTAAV
T2 sequence (P24387 whole entry): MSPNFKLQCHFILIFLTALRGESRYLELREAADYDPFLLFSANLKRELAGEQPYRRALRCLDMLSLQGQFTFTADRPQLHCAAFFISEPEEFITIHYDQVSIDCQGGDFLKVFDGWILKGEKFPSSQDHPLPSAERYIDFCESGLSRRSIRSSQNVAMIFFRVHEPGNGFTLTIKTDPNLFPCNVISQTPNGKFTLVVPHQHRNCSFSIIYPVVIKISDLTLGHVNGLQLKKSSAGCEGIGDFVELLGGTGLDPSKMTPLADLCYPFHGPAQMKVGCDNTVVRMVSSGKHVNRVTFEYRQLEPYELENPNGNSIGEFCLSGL

[20] = target: T2, Corticotropin-releasing factor receptor 2/Corticotropin-releasing factor-binding protein; assay: Dose Response confirmation of uHTS hits for small molecule antagonists of the CRF-binding protein and CRF-R2 receptor complex.; assay type: functional; details: read-out: IC50_Mean
[21] = blockers of CRF-binding protein–CRF-R2 complex – cell-based, uHTS hits, 384-well, dose response (AID 651639); assay type: functional, Homo sapiens; details: read-out: IC50_Mean

EC50 [1]: 32.1 µM (not active) | EC50 [2]: 42.4 µM (inactive) | EC50 [3]: > 79.4 µM (not active)
SMILES: COc1ccccc1OCC(=O)Nc1nnc(-c2ccco2)s1

IC50 [5]: > 93.1 µM (not active)
SMILES: COc1ccc(C2C(C(=O)NCc3ccco3)CCC(=O)N2c2ccc(OC)cc2)cc1 (stereo not given)

EC50 [4]: 0.75 µM (not active)
SMILES: O=C(CSc1ccc(-c2ccco2)nn1)NC1CCCC1

Continued, compound first:

SMILES: Cc1ccccc1S(=O)(=O)Nc1nc2ccccc2nc1N1CCOCC1
EC50 [1]: 11.8 µM (not active) | EC50 [2]: 10.1 µM (inactive) | EC50 [3]: > 79.4 µM (not active)

SMILES: O=C(Nc1ccncc1)Nc1ccncc1
EC50 [4]: 8.86 µM (not active)

SMILES: O=C(c1ccccc1)c1nc[nH]c1C(=O)Nc1ccccn1
IC50 [5]: > 93.1 µM (not active)

SMILES: COc1cc(C(=O)NCc2cn3ccsc3n2)cc(OC)c1OC
IC50 [5]: 53.1 µM (not active)

SMILES: COc1ccccc1NC(=O)c1nc(S(=O)(=O)Cc2ccccc2)ncc1Cl
EC50 [6]: 5 µM (active) | AC50 [7]: 0.492 µM (active) | EC50 [8]: > 350 µM (not active) | AC50 [9]: 8.83 µM (active) | AC50 [10]: 14.2 µM (active) | AC50 [11]: 6.44 µM (active) | AC50 [12]: 21.1 µM (active) | AC50 [13]: 8.91 µM (active) | AC50 [14]: 6.58 µM (active)

SMILES: CCCCCCOc1ccc(OC(=O)c2ccncc2)cc1
AC50 [15]: 4.71 µM (active) | AC50 [16]: 3.67 µM (active) | AC50 [17]: 44.6 µM (active) | AC50 [18]: 5.4 µM (active)

SMILES: Cc1ccc(SCc2noc(-c3c(C)noc3C)n2)cc1
EC50 [19]: > 53 µM (inactive) | IC50 [20]: < 0.368 µM (active) | IC50 [21]: > 20 µM (inactive)

SMILES: Fc1ccccc1CSc1ncnc2c1oc1ccccc12
EC50 [1]: 20 µM (not active) | EC50 [2]: 44.1 µM (inactive) | EC50 [3]: > 79.4 µM (not active)
